Source: the OligoGym collection
After the bases stand the sugars from the 5' end (letter, count) and the backbone: PS all phosphorothioate, else s phosphorothioate and o phosphodiester by linkage. Methylation of C is not given here. e = 2'-O-(2-methoxyethyl) (MOE); k = constrained ethyl (cEt); d = 2'-deoxy (DNA); m = 2'-O-methyl

Biological target: HSD17B13
Conditions: ASO, HepaRG

Row | Sequence | target mRNA inhibition (1 µM) [%] | further results
1 | CGTTUTGGGCTAATGA (sugars k3 d1 m1 d8 k3, PS) | 34 | –
2 | CTAAAATTGTCTAAAC (sugars k3 d1 m1 d8 k3, PS) | 13 | –
3 | CTAAACTAGTGGTAAT (sugars k3 d10 k3, PS) | 23 | –
4 | CTAAAGCAGGCTACTT (sugars k3 d10 k3, PS) | 32 | –
5 | CTAACTAACCTGACAC (sugars k3 d10 k3, PS) | 23 | –
6 | CTAAGTTAGCCCCCAG (sugars k3 d10 k3, PS) | 15 | –
7 | CTAATGAATCATGATT (sugars k3 d10 k3, PS) | 20 | –
8 | CTAATGTATGAGGTCT (sugars k3 d10 k3, PS) | 46 | –
9 | CTAATTTAGTCAACTT (sugars k3 d10 k3, PS) | 40 | –
10 | CTACACTAATATTGAG (sugars k3 d9 k3 e1, PS) | 10 | –
11 | CTACACTAATATTGAG (sugars k3 d10 k3, PS) | 20 | –
12 | CTACATGTAAGGTTTT (sugars k3 d10 k3, PS) | 11 | –
13 | CTACCTCTAAGTTAGC (sugars k3 d10 k3, PS) | 6 | –
14 | CTAGAATTAAGGGCTA (sugars k3 d10 k3, PS) | 42 | –
15 | CTAGATTCTACACTAA (sugars k3 d10 k3, PS) | 17 | –
16 | CTAGGGAAATCTTTCA (sugars k3 d9 k3 e1, PS) | 55 | –
17 | CTAGTGCCAAACCAAT (sugars k3 d9 k3 e1, PS) | 61 | –
18 | CTAGTGCCAAACCAAT (sugars k3 d10 k3, PS) | 49 | –
19 | CTAGTTGCAATGAGAT (sugars k3 d10 k3, PS) | 65 | –
20 | CTATAGTAATCACAAG (sugars k3 d9 k3 e1, PS) | 53 | –
21 | CTATAGTAATCACAAG (sugars kkdddddddddkekek, PS) | 36 | –
22 | CTATAGTAATTGCTAT (sugars k3 d10 k3, PS) | 0 | –

Row | Sequence | target mRNA inhibition (1 µM) [%] | further results
23 | CTATCAGACTTCTTAC (sugars k3 d10 k3, PS) | 39 | –
24 | CTATCATGCCTTCCCC (sugars k3 d10 k3, PS) | 1 | –
25 | CTCAATAACTGAGTTA (sugars k3 d10 k3, PS) | 4 | –
26 | CTCATTATAAGCTAAC (sugars k3 d10 k3, PS) | 13 | –
27 | CTCATTTATGTACCAA (sugars k3 d10 k3, PS) | 87 | target mRNA inhibition (0.02 µM): 0%; target mRNA inhibition (0.078 µM): 50%; target mRNA inhibition (0.313 µM): 75%; target mRNA inhibition (1.25 µM): 79%
28 | CTCCAAATTCCCAACC (sugars k3 d10 k3, PS) | 31 | –
29 | CTCCAAGGAGTGCATC (sugars k3 d10 k3, PS) | 53 | –
30 | CTCCACACCGCGCTTA (sugars k3 d10 k3, PS) | 7 | –
31 | CTCCAGTAATGAGAAC (sugars k3 d10 k3, PS) | 40 | –
32 | CTCCCACAAAACTAAC (sugars k3 d10 k3, PS) | 13 | –
33 | CTCCTTATTTGTTAGA (sugars k3 d10 k3, PS) | 26 | –
34 | CTCGGGAAGTTTAGAC (sugars k3 d10 k3, PS) | 47 | –
35 | CTCTAAGTTAGCCCCC (sugars k3 d10 k3, PS) | 38 | –
36 | CTCTAGGAGATATAAC (sugars k3 d10 k3, PS) | 49 | –
37 | CTCTATAATAAGGTAA (sugars k3 d10 k3, PS) | 0 | –
38 | CTCTATTGGGCCAGGC (sugars k3 d10 k3, PS) | 46 | –
39 | CTCTATTGGTGTTTTA (sugars k3 d10 k3, PS) | 32 | –
40 | CTCTCTAAAGGGCTGC (sugars k3 d10 k3, PS) | 55 | –
41 | CTCTGGGACCAAGGAT (sugars k3 d1 m1 d8 k3, PS) | 43 | –
42 | CTCTGGGACCAAGGAT (sugars kkdddddddddkekek, PS) | 39 | –
43 | CTCTTGGGTCCATTGT (sugars k3 d10 k3, PS) | 40 | –
